{"source": "patent US20250121084A1", "about": "“ANTI-CLAUDIN-6 CONJUGATES” (priority 2023, published 2025)", "key": {"a variety of cell lines": {"test_system": "a variety of cell lines", "conditions": "versus SN38; cited from earlier work"}, "topo I/DNA complex": {"biological_target": "T1, topo I/DNA complex (Homo sapiens, UniProt P11387)", "T1 sequence (P11387 1-765)": "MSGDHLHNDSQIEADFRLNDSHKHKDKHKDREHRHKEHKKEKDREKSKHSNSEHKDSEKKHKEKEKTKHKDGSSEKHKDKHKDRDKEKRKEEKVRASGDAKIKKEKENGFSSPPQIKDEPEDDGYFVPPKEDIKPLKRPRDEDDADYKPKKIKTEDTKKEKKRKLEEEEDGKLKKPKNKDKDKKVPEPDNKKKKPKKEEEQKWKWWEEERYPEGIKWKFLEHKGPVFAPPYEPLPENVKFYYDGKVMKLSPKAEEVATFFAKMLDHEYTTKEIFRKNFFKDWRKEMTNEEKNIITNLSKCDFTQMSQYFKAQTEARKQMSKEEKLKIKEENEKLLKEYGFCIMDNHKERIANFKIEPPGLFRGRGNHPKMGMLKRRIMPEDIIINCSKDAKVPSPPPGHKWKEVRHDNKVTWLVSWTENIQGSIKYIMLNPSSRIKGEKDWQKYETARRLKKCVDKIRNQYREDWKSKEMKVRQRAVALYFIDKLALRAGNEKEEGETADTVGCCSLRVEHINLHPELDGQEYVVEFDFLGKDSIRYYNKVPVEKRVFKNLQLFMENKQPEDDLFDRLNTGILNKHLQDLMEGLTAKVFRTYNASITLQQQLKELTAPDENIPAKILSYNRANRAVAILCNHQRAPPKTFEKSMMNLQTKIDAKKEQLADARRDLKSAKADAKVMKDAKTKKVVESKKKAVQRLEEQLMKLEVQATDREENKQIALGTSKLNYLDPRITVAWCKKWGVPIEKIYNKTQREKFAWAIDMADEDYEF", "conditions": "versus SN38 (the active metabolite of irinotecan); cited from earlier work"}, "[1]": {"assay": "Aggregation during conjugation to a test antibody (% monomer by SEC)", "assay_type": "physicochemical", "method": "2 mg of monoclonal antibody GB01 at 8.87 mg/ml was pH adjusted with 5% 0.5 M Tris, 0.025 M EDTA, pH 8.5 and reduced with 2.3 mol. eq. TCEP and then conjugated with 6 mol. eq. drug linker. After buffer exchange into 30 mM Histidine, 175 mM Sucrose pH 6.0/PBS, the drug to antibody ratio (DAR) was by HIC/LC-MS and % Monomer by size exclusion chromatography (SEC). Percentage monomer values of 95% or greater are assessed as low aggregation.\nAggregation levels were assessed during the conjugation to a test antibody. Conjugation was performed as described above for ADC1.\nDuring conjugation, we are ideally targeting a monomer content or percentage monomer of 95% or above. Low percentage monomer values usually translate to a higher degree of aggregation. One could therefore agree that percentage monomer values of 95% or higher mean very low levels of aggregation or none, whereas values below this threshold often translate to higher levels of aggregation."}, "[2]": {"assay": "RP-HPLC retention time correlated with hydrophobicity", "assay_type": "physicochemical", "conditions": "high Rt = hydrophobic, low Rt = hydrophilic", "method": "A correlation study was also carried out using Reverse-Phase HPLC (RP-HPLC). The two constructs were injected in RP-HPLC and retention times (Rt) correlated with hydrophobicity—i.e., high Rt was associated to hydrophobic constructs whereas low Rt to hydrophilic ones."}}, "note": "Starred links: 1 amine or outer side, 2 acyl side, 3 side chain; linkers in the order of their positions; H or OH if unused. Non-standard residues stand in square brackets, D forms with d. Residues, ends and D or L forms follow the SMILES beside them. *: point of attachment. Exatecan = CC[C@@]1(O)C(=O)OCc2c1cc1n(c2=O)Cc2c-1nc1cc(F)c(C)c3c1c2[C@@H](N*)CC3; Propanoyl(3-maleimido) = O=C1C=CC(=O)N1CCC(=O)*; PABC = O=C(OCc1ccc(N[*:1])cc1)[*:2]", "data": [{"smiles": "CC[C@@]1(O)C(=O)OCc2c1cc1n(c2=O)Cc2c-1nc1cc(F)c(C)c3c1c2[C@@H](N)CC3", "note": "[Exatecan]", "values": [{"measurement": "potency relative to SN38 as a cytotoxin", "setting": "a variety of cell lines", "result": "about 2.5 fold"}, {"measurement": "potency relative to SN38 at stabilizing the topo I/DNA complex", "setting": "topo I/DNA complex", "result": "about 2.5 fold"}]}, {"smiles": "CC[C@@]1(O)C(=O)OCc2c1cc1n(c2=O)Cc2c-1nc1cc(F)c(C)c3c1c2[C@@H](NC(=O)OCc1ccc(NC(=O)[C@H](C)NC(=O)[C@@H](NC(=O)CNC(=O)CNC(=O)CNC(=O)CNC(=O)CNC(=O)CCN2C(=O)C=CC2=O)C(C)C)cc1)CC3", "note": "[Mal-Gly5-VA-PABC-Exatecan] ({Propanoyl(3-maleimido)}-GGGGGVA[PABC]-Exatecan)", "values": [{"measurement": "Aggregation", "setting": "[1]", "result": "None"}, {"measurement": "Aggregation (% monomer)", "setting": "[1]; 95% or greater = low aggregation", "result": 98, "unit": "%"}, {"measurement": "Rt", "setting": "[2]", "result": 9.76, "unit": "min"}]}]}
